Results from ChEMBL document CHEMBL1137544, “Syntheses of immunomodulating androstanes and stigmastanes: comparison of their TNF-alpha inhibitory activity” (Bioorg Med Chem, 2007).
Calls of active or inactive are those of the source. The rule behind the calls is not given here.

Tested on: J774.A1
Experiment: Cytotoxicity against mouse J774A.1 cells
Assay type: cell-based

| SMILES | Activity |
| --- | --- |
| CC[C@@H](C(C)C)[C@@H](O)[C@H](O)[C@@H](C)[C@H]1CC[C@H]2[C@@H]3CC(=O)[C@@]4(O)C[C@@H](F)CC[C@]4(C)[C@H]3CC[C@]12C | Toxic |
| CC[C@@H](C(C)C)[C@@H](O)[C@H](O)[C@@H](C)[C@H]1CC[C@H]2[C@@H]3CC(=O)[C@@]4(O)C[C@@H](Br)CC[C@]4(C)[C@H]3CC[C@]12C | Toxic |

Tested on: J774.A1
Experiment: Inhibition of LPS-induced TNFalpha production in mouse J774A.1 cells
Assay type: functional, cell-based

| SMILES | Activity | IC50 |
| --- | --- | --- |
| C[C@]12CC[C@H]3[C@@H](CC(=O)[C@@]4(O)C[C@@H](Br)CC[C@]34C)[C@@H]1CCC(=O)O2 | inactive |  |
| C[C@@H]1C[C@H]2[C@@H]3CCC4=CC(=O)C=C[C@]4(C)[C@@]3(F)[C@@H](O)C[C@]2(C)[C@@]1(O)C(=O)CO [DEXAMETHASONE] |  | 48 nM |
| CC[C@@H](C(C)C)[C@H](O)[C@@H](O)[C@@H](C)[C@H]1CC[C@H]2[C@@H]3CC=C4C[C@@H](F)CC[C@]4(C)[C@H]3CC[C@]12C | inactive |  |
| CC[C@@H](C(C)C)[C@H](O)[C@@H](O)[C@@H](C)[C@H]1CC[C@H]2[C@@H]3CC(=O)[C@@]4(O)C[C@@H](O)CC[C@]4(C)[C@H]3CC[C@]12C |  | 18 nM |
| CC[C@@H](C(C)C)[C@H](O)[C@@H](O)[C@@H](C)[C@H]1CC[C@H]2[C@@H]3CC=C4C[C@@H](O)CC[C@]4(C)[C@H]3CC[C@]12C |  | 35 nM |
| C[C@]12CC[C@H](O)CC1=CC[C@@H]1[C@@H]2CC[C@]2(C)C(=O)CC[C@@H]12 [PRASTERONE] |  | 141 nM |
| CC[C@@H](C(C)C)[C@H](O)[C@@H](O)[C@@H](C)[C@H]1CC[C@H]2[C@@H]3CC(=O)[C@@]4(O)C[C@@H](Br)CC[C@]4(C)[C@H]3CC[C@]12C |  | 38 nM |
| C[C@]12CC[C@H]3[C@@H](CC(=O)[C@@]4(O)C[C@@H](Br)CC[C@]34C)[C@@H]1CCC2=O |  | 134 nM |
| CC[C@@H](C(C)C)[C@H](O)[C@@H](O)[C@@H](C)[C@H]1CC[C@H]2[C@@H]3CC=C4C[C@@H](Cl)CC[C@]4(C)[C@H]3CC[C@]12C | inactive |  |
| CC[C@@H](C(C)C)[C@H](O)[C@@H](O)[C@@H](C)[C@H]1CC[C@H]2[C@@H]3CC=C4C[C@@H](Br)CC[C@]4(C)[C@H]3CC[C@]12C |  | 144 nM |
| C[C@]12CC[C@H]3[C@@H](CC(=O)[C@@]4(O)C[C@@H](O)CC[C@]34C)[C@@H]1CCC2=O |  | 109 nM |
| CC[C@@H](C(C)C)[C@H](O)[C@@H](O)[C@@H](C)[C@H]1CC[C@H]2[C@@H]3CC(=O)[C@@]4(O)C[C@@H](F)CC[C@]4(C)[C@H]3CC[C@]12C |  | 47 nM |
